# Data taken from patent publication US20250144067A1, “PERSONALIZED STARVATION THERAPY FOR CANCER” (Faeth Therapeutics, Inc., priority 2021, published 2025).
# Counter-ions that a name gives are not always drawn. Like-named read-outs stand apart in the source and are kept apart here.
# What was measured:
# [1] = tested on: NCI-H292 lung cancer cells; experiment: FDA drug screening, complete media vs cholesterol-free media without statin (TABLE 1); format: cell-based, human
# [2] = tested on: NCI-H292 lung cancer cells; experiment: FDA drug screening, complete media vs cholesterol-free media with simvastatin (TABLE 2); format: cell-based, human
# [3] = NCI-H292 cells, cholesterol-free media without statin
# [4] = complete vs cholesterol-free media, greater than 0 enhanced anti-cancer activity, about 0 neutral, below 0 antagonists
# [5] = NCI-H292 cells, drug in cholesterol-free media with simvastatin 0.04 μM
# [6] = NCI-H292 cells, drug in complete media
# [7] = complete media vs cholesterol-free media + simvastatin (0.04 μM), >0 enhanced anti-cancer activity, about 0 neutral, <0 antagonist
# [8] = Complete minus Cholesterol-free, >0 enhanced anti-cancer activity, about 0 neutral, <0 antagonist
# [9] = NCI-H292 cells, cholesterol-free media without statin, FDA drug library screen
# [10] = NCI-H292 cells, complete media, FDA drug library screen
# [11] = NCI-H292 cells, FDA drug library screen, cholesterol-free media with simvastatin 0.04 μM
# [12] = NCI-H292 cells, FDA drug library screen, complete media
# [13] = complete media minus cholesterol-free media + simvastatin, >0 enhanced anti-cancer activity, about 0 neutral, <0 antagonist
# [14] = NCI-H292 cells, cholesterol-free media with simvastatin 0.04 μM, FDA drug library screen (TABLE 2)
# [15] = NCI-H292 cells, complete media, FDA drug library screen (TABLE 2)
# [16] = complete media minus cholesterol-free media + simvastatin (0.04 μM), >0 enhanced anti-cancer activity, about 0 neutral, <0 antagonist
# [17] = NCI-H292 cells, cholesterol-free media with simvastatin 0.04 μM, cell growth value in FDA drug screen
# [18] = NCI-H292 cells, complete media, cell growth value in FDA drug screen
# [19] = Complete minus Cholesterol-free, […]
# [20] = NCI-H292 cells, FDA drug library screen, cholesterol-free media without statin
# [21] = Complete minus Cholesterol-free, greater than 0 enhanced anti-cancer activity, about 0 neutral, below 0 antagonist
# [22] = NCI-H292 cells, FDA library drug in cholesterol-free media with simvastatin 0.04 μM
# [23] = NCI-H292 cells, FDA library drug in complete media
# [24] = Complete minus Cholesterol-free, greater than 0 enhanced anti-cancer activity, about 0 neutral, below 0 antagonists
# [25] = NCI-H292 cells in cholesterol-free media without statin
# [26] = NCI-H292 cells in complete media
# [27] = complete vs cholesterol-free media, >0 enhanced anti-cancer activity, about 0 neutral, <0 antagonist
molecule,measurement,setting,value
CC(C)c1cc2c(cc1S(=O)(=O)O)[C@@]1(C)CCC[C@@](C)(C(=O)O)[C@@H]1CC2 [Ecabet (sodium)],Cholesterol-free,[1]; [3],1.17
same,Complete,"[1]; NCI-H292 cells, complete media",0.8018
same,Difference,[1]; [4],−0.37
same,Cholesterol-free media + simvastatin (0.04 μM),[2]; [5],1.124
same,Complete Media,[2]; [6],0.9102
same,Difference,[2]; [7],−0.21
Nc1nc(NC2CC2)c2ncn([C@H]3C=C[C@@H](CO)C3)c2n1.Nc1nc(NC2CC2)c2ncn([C@H]3C=C[C@@H](CO)C3)c2n1.O=S(=O)(O)O [Abacavir (sulfate)],Difference,[1]; [8],0.06
same,Cholesterol-free,[1]; [9],0.4233
same,Complete,[1]; [10],0.4872
same,Cholesterol-free media + simvastatin (0.04 μM),[2]; [11],0.2456
same,Complete Media,[2]; [12],0.4029
same,Difference,[2]; [13],0.16
CC(C)(C)CC(=O)OCC(=O)[C@@]1(O)CC[C@H]2[C@@H]3CCC4=CC(=O)C=C[C@]4(C)[C@H]3[C@@H](O)C[C@@]21C [Prednisolone Tebutate],Cholesterol-free,[1]; [3],1.01
same,Complete,"[1]; NCI-H292 cells, complete media",0.6634
same,Difference,[1]; [4],−0.35
same,Cholesterol-free media + simvastatin (0.04 μM),[2]; [14],0.7311
same,Complete Media,[2]; [15],0.7398
same,Difference,[2]; [16],0.01
Cc1ccccc1-c1cc(N2CCN(C)CC2)ncc1N(C)C(=O)C(C)(C)c1cc(C(F)(F)F)cc(C(F)(F)F)c1 [Netupitant],Cholesterol-free,[1]; [3],1.25
same,Complete,"[1]; NCI-H292 cells, complete media",0.915
same,Difference,[1]; [4],−0.34
same,Cholesterol-free media + simvastatin (0.04 μM),[2]; [17],0.8546
same,Complete Media,[2]; [18],0.9156
same,Difference,[2]; [13],0.06
COc1ccccc1OC(=O)c1ccccc1OC(C)=O [Guacetisal],Difference,[1]; [19],−0.09
same,Cholesterol-free,[1]; [20],0.837
same,Complete,[1]; [12],0.7434
same,Cholesterol-free media + simvastatin (0.04 μM),"[2]; NCI-H292 cells, cholesterol-free media with simvastatin 0.04 μM, […]",1.34
same,Complete Media,"[2]; NCI-H292 cells, complete media, […]",1.4
same,Difference,"[2]; complete media minus cholesterol-free media + simvastatin, […]",0.06
CN[C@H]1CC[C@@H](c2ccc(Cl)c(Cl)c2)c2ccccc21 [Sertraline (hydrochloride)],Difference,[1]; [21],−0.11
same,Complete,[1]; [12],0.9984
same,Cholesterol-free media + simvastatin (0.04 μM),[2]; [11],0.9083
same,Complete Media,[2]; [12],1.2
same,Difference,[2]; [13],0.29
CCOc1ccc(Cc2cc([C@]34OC[C@](CO)(O3)[C@@H](O)[C@H](O)[C@H]4O)ccc2Cl)cc1 [Ertugliflozin],Difference,[1]; [21],−0.08
same,Cholesterol-free,[1]; [20],1.071
same,Complete,[1]; [12],0.9907
same,Cholesterol-free media + simvastatin (0.04 μM),[2]; [17],1.703
same,Complete Media,[2]; [18],1.808
same,Difference,[2]; [13],0.10
CC(=O)S[C@@H]1CC2=CC(=O)CC[C@]2(C)[C@H]2CC[C@@]3(C)[C@@H](CC[C@@]34CCC(=O)O4)[C@H]12 [Spironolactone],Difference,[1]; [8],0.03
same,Cholesterol-free,[1]; [9],1.102
same,Complete,[1]; [10],1.134
same,Cholesterol-free media + simvastatin (0.04 μM),[2]; [22],1.784
same,Complete Media,[2]; [23],1.272
same,Difference,[2]; [7],−0.51
O=C(Nc1c(Cl)cncc1Cl)c1ccc(OC(F)F)c(OCC2CC2)c1 [Roflumilast],Difference,[1]; [8],−0.06
same,Cholesterol-free,[1]; [9],0.9495
same,Complete,[1]; [10],0.8928
same,Cholesterol-free media + simvastatin (0.04 μM),[2]; [22],1.607
same,Complete Media,[2]; [23],0.8972
same,Difference,[2]; [7],−0.71
CN(C)[C@@H]1C(O)=C(C(N)=O)C(=O)[C@@]2(O)C(O)=C3C(=O)c4c(O)cccc4[C@@](C)(O)[C@H]3C[C@@H]12 [Tetracycline (hydrochloride)],Cholesterol-free,[1]; [3],1.387
same,Complete,"[1]; NCI-H292 cells, complete media",0.93
same,Difference,[1]; [4],−0.46
same,Cholesterol-free media + simvastatin (0.04 μM),[2]; [14],0.7005
same,Complete Media,[2]; [15],0.7002
same,Difference,[2]; [16],0.00
C[C@]12CC[C@@H]3c4ccc(OS(=O)(=O)O)cc4CC[C@H]3[C@@H]1CCC2=O [Estropipate],Difference,[1]; [24],−0.48
same,Cholesterol-free,[1]; [25],1.475
same,Complete,[1]; [26],0.9927
same,Cholesterol-free media + simvastatin (0.04 μM),[2]; [11],0.9313
same,Complete Media,[2]; [12],1.077
same,Difference,[2]; [13],0.15
C=CC[N+]1([C@H]2C[C@H]3[C@@H]4CC[C@H]5C[C@H](OC(C)=O)[C@@H](N6CCCCC6)C[C@]5(C)[C@H]4CC[C@]3(C)[C@H]2OC(=O)CC)CCCCC1 [Rapacuronium bromide],Difference,[1]; [19],0.04
same,Cholesterol-free,[1]; [9],0.8802
same,Complete,[1]; [10],0.9158
same,Cholesterol-free media + simvastatin (0.04 μM),[2]; [22],1.051
same,Complete Media,[2]; [23],0.7626
same,Difference,"[2]; complete media vs cholesterol-free media + simvastatin (0.04 μM), […]",−0.29
CSc1nc2cc(Cl)c(Oc3cccc(Cl)c3Cl)cc2[nH]1 [Triclabendazole],Difference,[1]; [24],−0.64
same,Cholesterol-free,[1]; [25],1.673
same,Complete,[1]; [26],1.028
same,Complete Media,[2]; [12],1.193
same,Difference,[2]; [13],0.25
CNCCCC12CCC(c3ccccc31)c1ccccc12 [Maprotiline (hydrochloride)],Cholesterol-free,[1]; [3],1.347
same,Complete,"[1]; NCI-H292 cells, complete media",0.9995
same,Difference,[1]; [4],−0.35
same,Cholesterol-free media + simvastatin (0.04 μM),[2]; [22],1.215
same,Complete Media,[2]; [23],0.924
same,Difference,[2]; [7],−0.29
CCCCc1oc2ccc(NS(C)(=O)=O)cc2c1C(=O)c1ccc(OCCCN(CCCC)CCCC)cc1 [Dronedarone],Difference,[1]; [21],−0.14
same,Cholesterol-free,[1]; [20],1.006
same,Complete,[1]; [12],0.8674
same,Cholesterol-free media + simvastatin (0.04 μM),[2]; [11],0.4908
same,Complete Media,[2]; [12],0.8741
same,Difference,[2]; [13],0.38
O=C(O)Cc1ccccc1Nc1c(Cl)cccc1Cl [Diclofenac (Sodium)],Difference,[1]; [8],−0.23
same,Cholesterol-free,[1]; [3],1.086
same,Complete,"[1]; NCI-H292 cells, complete media",0.859
same,Cholesterol-free media + simvastatin (0.04 μM),[2]; [22],1.356
same,Complete Media,[2]; [23],0.9075
same,Difference,[2]; [7],−0.45
CC(C)c1nc(CN(C)C(=O)N[C@H](C(=O)N[C@@H](Cc2ccccc2)C[C@H](O)[C@H](Cc2ccccc2)NC(=O)OCc2cncs2)C(C)C)cs1 [Ritonavir],Difference,[1]; [8],−0.25
same,Cholesterol-free,[1]; [3],1.533
same,Complete,"[1]; NCI-H292 cells, complete media",1.287
same,Cholesterol-free media + simvastatin (0.04 μM),[2]; [22],1.133
same,Complete Media,[2]; [23],0.8233
same,Difference,[2]; [7],−0.31
CCOC(=O)O[C@]1(C(=O)OCCl)CC[C@H]2[C@@H]3CCC4=CC(=O)C=C[C@]4(C)[C@H]3[C@@H](O)C[C@@]21C [Loteprednol Etabonate],Cholesterol-free,[1]; [9],0.5384
same,Complete,[1]; [10],0.8969
same,Difference,[1]; [27],0.36
same,Cholesterol-free media + simvastatin (0.04 μM),[2]; [11],0.9128
same,Complete Media,[2]; [12],1.184
same,Difference,[2]; [13],0.27
O=C(CO)[C@@H](O)[C@H](O)[C@H](O)CO [Fructose],Cholesterol-free,[1]; [9],1.048
same,Complete,[1]; [10],1.329
same,Difference,[1]; [27],0.28
same,Cholesterol-free media + simvastatin (0.04 μM),[2]; [22],2.032
same,Complete Media,[2]; [23],1.165
same,Difference,[2]; [7],−0.87
Cc1nc2c([nH]1)-c1ccccc1N(C(=O)c1ccc(NC(=O)c3ccccc3-c3ccccc3)cc1)CC2 [Conivaptan (hydrochloride)],Difference,[1]; [24],−0.65
same,Cholesterol-free,[1]; [25],1.641
same,Complete,[1]; [26],0.989
same,Cholesterol-free media + simvastatin (0.04 μM),[2]; [11],1.147
same,Complete Media,[2]; [12],1.002
same,Difference,[2]; [7],−0.15
Prednisolone (hemisuccinate),Cholesterol-free,[1],0.8784
same,Complete,[1],0.4751
same,Difference,[1],−0.40
same,Cholesterol-free media + simvastatin (0.04 μM),[2],0.7218
same,Difference,[2],0.06
NNC(=O)c1ccncc1 [Isoniazid],Cholesterol-free,[1]; [9],0.6633
same,Complete,[1]; [10],1.357
same,Difference,[1]; [27],0.69
same,Cholesterol-free media + simvastatin (0.04 μM),[2]; [11],1.455
same,Complete Media,[2]; [12],1.672
same,Difference,[2]; [13],0.22
CN1CCc2c(c3ccccc3n2Cc2ccccc2)C1 [Mebhydrolin (napadisylate)],Cholesterol-free,[1]; [9],1.008
same,Complete,[1]; [10],1.238
same,Difference,[1]; [27],0.23
same,Cholesterol-free media + simvastatin (0.04 μM),[2]; [14],0.9255
same,Complete Media,[2]; [15],0.929
same,Difference,[2]; [16],0.00
CC(=O)O[C@H]1C[C@@]2(C)[C@@H](C[C@@H](O)[C@H]3[C@@]4(C)CC[C@@H](O)[C@@H](C)[C@@H]4CC[C@@]32C)/C1=C(\CCC=C(C)C)C(=O)O [Fusidic acid (sodium salt)],Cholesterol-free,[1]; [9],0.7301
same,Complete,[1]; [10],1.107
same,Difference,[1]; [27],0.38
same,Cholesterol-free media + simvastatin (0.04 μM),[2]; [14],0.9882
same,Complete Media,[2]; [15],0.9484
same,Difference,[2]; [16],−0.04
C[C@@H]1C[C@H]2[C@@H]3CCC4=CC(=O)C=C[C@]4(C)[C@@]3(F)[C@@H](O)C[C@]2(C)[C@@]1(O)C(=O)COP(=O)([O-])[O-].[Na+].[Na+] [Dexamethasone phosphate disodium],Difference,[1]; [8],−0.02
same,Cholesterol-free,[1]; [9],0.7426
same,Complete,[1]; [10],0.7227
same,Cholesterol-free media + simvastatin (0.04 μM),[2]; [11],0.6625
same,Complete Media,[2]; [12],1.229
same,Difference,[2]; [13],0.57
O=c1cc(-c2ccccc2)oc2cc(O)c(O)c(O)c12 [Baicalein],Cholesterol-free,[1]; [3],1.261
same,Complete,"[1]; NCI-H292 cells, complete media",0.9313
same,Difference,[1]; [4],−0.33
same,Cholesterol-free media + simvastatin (0.04 μM),[2]; [5],1.347
same,Complete Media,[2]; [6],1.087
same,Difference,[2]; [7],−0.26
